Measurements published in ChEMBL document CHEMBL3243923, “Linked Aryl Aryloxypropanolamines as a new class of lipid catabolis agents” (J Med Chem, 1978).
Activity calls are given as the source filed them. No cut-off for these calls is given here.

What was measured:
[1] = Therapeutic index, ratio of MNTD for chronic toxicity in po dosed mouse to ED25 for antiobesity activity in mouse assessed as reduction in utero fat; format: organism-based; details: in vivo, read-out: TI
Rhesus monkey = assay: Toxicity in monkey assessed as estrogenic activity; format: organism-based, Macaca mulatta; details: in vivo
Rattus norvegicus [2] = assay: Toxicity in rat assessed as increase in adrenal weight at 80 mg/kg administered every day through diet for 5 weeks measured after 5th week relative to control; format: organism-based; set-up: dose 80 mg/kg; details: in vivo, po, 840 h
Canis familiaris [3] = assay: Antiobesity activity in Beagle dog assessed as decrease in body weight at 4 mg/kg administered every day through gelatin capsule for 6 weeks measured every week for 6 weeks relative to placebo control; format: functional, Canis lupus familiaris; set-up: scale not given: the % may be the effect or the level left
Rattus norvegicus [4] = species: Rattus norvegicus; assay: Toxicity in rat assessed as estrogenic activity; format: organism-based; details: in vivo
Mus musculus [5] = assay: Antiobesity activity in mouse assessed as reduction in utero fat at 0.01% administered every day through diet for 10 days measured after day 10 relative to control; format: functional; set-up: scale not given: the % may be the effect or the level left
Rattus norvegicus [6] = assay: Toxicity in rat assessed as increase in adrenal weight at 80 mg/kg, po qd administered for 5 days measured on day 6 relative to control; format: organism-based; set-up: dose 80 mg/kg, route oral; details: in vivo, 120 h
Rattus norvegicus [7] = assay: Toxicity in rat assessed as decrease in liver weight at 80 mg/kg, po qd administered for 5 days measured on day 6 relative to control; format: organism-based; set-up: dose 80 mg/kg, route oral; scale not given: the % may be the effect or the level left; details: in vivo, 120 h
Canis familiaris [8] = assay: Toxicity in Beagle dog assessed as emesis up to 150 mg/kg administered through gelatin capsule for every week for 6 weeks; format: organism-based, Canis lupus familiaris; set-up: dose 150 mg/kg; details: in vivo, 1008 h
Rattus norvegicus [9] = assay: Antiobesity activity in rat assessed as reduction in food intake at 80 mg/kg, po qd administered for 5 days measured every day for 5 days relative to control; format: functional; set-up: scale not given: the % may be the effect or the level left
Rattus norvegicus [10] = assay: Antiobesity activity in rat assessed as reduction in food intake at 80 mg/kg administered every day through diet for 5 weeks measured every week for 5 weeks relative to control; format: functional; set-up: scale not given: the % may be the effect or the level left
Rattus norvegicus [11] = assay: Antiobesity activity in rat assessed as reduction in body weight at 80 mg/kg administered every day through diet for 5 weeks measured for 5 weeks relative to control; format: functional; set-up: scale not given: the % may be the effect or the level left
Rattus norvegicus [12] = assay: Antiobesity activity in rat assessed as reduction in utero fat at 80 mg/kg administered every day through diet for 5 weeks measured after 5th week relative to control; format: functional; set-up: scale not given: the % may be the effect or the level left
Rattus norvegicus [13] = assay: Antiobesity activity in rat assessed as reduction in body weight at 80 mg/kg, po qd administered for 5 days measured on day 6 relative to control; format: functional; set-up: scale not given: the % may be the effect or the level left
Rattus norvegicus [14] = species: Rattus norvegicus; assay: Toxicity in rat assessed as lymphopenia; format: organism-based; details: in vivo
[15] = (§1) Chronic toxicity in po dosed mouse assessed as mortality administered as qd for 21 days; format: organism-based; details: in vivo, read-out: MNTD
Mus musculus [16] = assay: Reduction of plasma insulin level in mouse at 0.04% administered every day through diet for 10 days measured on day 10 by double antibody method relative to control; format: functional; set-up: scale not given: the % may be the effect or the level left
Rattus norvegicus [17] = assay: Toxicity in rat assessed as decrease in liver weight at 80 mg/kg administered every day through diet for 5 weeks measured after 5th week relative to control; format: organism-based; set-up: dose 80 mg/kg; scale not given: the % may be the effect or the level left; details: in vivo, po, 840 h
Canis familiaris [18] = assay: Antiobesity activity in Beagle dog assessed as decrease in food intake at 4 mg/kg administered every day through gelatin capsule for 6 weeks measured every day 2 hrs post feeding relative to placebo control; format: functional, Canis lupus familiaris; set-up: scale not given: the % may be the effect or the level left
Mus musculus [19] = assay: Toxicity in mouse assessed as liver hypertrophy at 1000 mg/kg, po administered for 21 days; format: organism-based; set-up: dose 1000 mg/kg, route oral; details: in vivo, 504 h
Mus musculus [20] = assay: Antiobesity activity in mouse assessed as reduction in utero fat administered every day through diet for 10 days measured after day 10; format: functional; details: 240 h
Mus musculus [21] = assay: Reduction of plasma insulin level in mouse at 0.01% administered every day through diet for 10 days measured on day 10 by double antibody method relative to control; format: functional; set-up: scale not given: the % may be the effect or the level left
Mus musculus [22] = assay: Antiobesity activity in mouse assessed as reduction in utero fat at 0.02% administered every day through diet for 10 days measured after day 10 relative to control; format: functional; set-up: scale not given: the % may be the effect or the level left
Mus musculus [23] = assay: Effect on blood glucose level in mouse at 0.01% administered every day through diet for 10 days measured on day 10 by glucose oxidase method; format: functional, organism-based
Mus musculus [24] = assay: as §1; format: organism-based; details: in vivo, 504 h
Mus musculus [25] = assay: Antiobesity activity in mouse assessed as reduction in utero fat at 0.005% administered every day through diet for 10 days measured after day 10 relative to control; format: functional; set-up: scale not given: the % may be the effect or the level left
Canis familiaris [26] = assay: Toxicity in Beagle dog assessed as emesis up to 10 mg/kg administered through gelatin capsule for every week for 6 weeks; format: organism-based, Canis lupus familiaris; set-up: dose 10 mg/kg; details: in vivo, 1008 h
Mus musculus [27] = assay: Antiobesity activity in mouse assessed as reduction in utero fat at 0.04% administered every day through diet for 10 days measured after day 10 relative to control; format: functional
Mus musculus [28] = assay: Antiobesity activity in mouse assessed as reduction in utero fat at 0.08% administered every day through diet for 10 days measured after day 10 relative to control; format: functional; set-up: scale not given: the % may be the effect or the level left
Rattus norvegicus [29] = assay: Toxicity in rat assessed as increase in adrenal weight at 100 mg/kg, po qd administered for 5 days measured on day 6 relative to control; format: organism-based; set-up: dose 100 mg/kg, route oral; details: in vivo, 120 h
Rattus norvegicus [30] = assay: Antiobesity activity in rat assessed as reduction in body weight at 100 mg/kg, po qd administered for 5 days measured on day 6 relative to control; format: functional; set-up: scale not given: the % may be the effect or the level left
Rattus norvegicus [31] = assay: Antiobesity activity in rat assessed as reduction in utero fat at 100 mg/kg, po qd administered for 5 days measured on day 6 relative to control; format: functional; set-up: scale not given: the % may be the effect or the level left
Rattus norvegicus [32] = assay: Toxicity in rat assessed as increase in liver weight at 100 mg/kg, po qd administered for 5 days measured on day 6 relative to control; format: organism-based; set-up: dose 100 mg/kg, route oral; details: in vivo, 120 h
Rattus norvegicus [33] = assay: Antiobesity activity in rat assessed as reduction in food intake at 100 mg/kg, po qd administered for 5 days measured every day for 5 days relative to control; format: functional; set-up: scale not given: the % may be the effect or the level left
Canis familiaris [34] = assay: Antiobesity activity in Beagle dog assessed as decrease in food intake at 4 mg/kg administered every day through gelatin capsule for 6 weeks measured 9 days post last dose; format: functional, organism-based; set-up: dose 4 mg/kg; details: Canis lupus familiaris
Mus musculus [35] = assay: Effect on blood glucose level in mouse at 0.04% administered every day through diet for 10 days measured on day 10 by glucose oxidase method; format: functional, organism-based

CC(C)NCC(O)COc1c(C(C)(C)C)cc(/C=C/c2ccccc2)cc1C(C)(C)C (racemic) [listing 1 of 2 here]
selectivity ratio [1]: 5 | Activity (Rhesus monkey): Non-toxic | Activity (Rattus norvegicus [2]): 16% | Activity (Canis familiaris [3]): 13% | Activity (Rattus norvegicus [4]): Non-toxic | Activity (Mus musculus [5]): 26% | Activity (Rattus norvegicus [6]): 21% | Activity (Rattus norvegicus [7]): 9% | Activity (Canis familiaris [8]): Toxic | Activity (Rattus norvegicus [9]): 79% | Activity (Rattus norvegicus [10]): 10% | Activity (Rattus norvegicus [11]): 9% | Activity (Rattus norvegicus [12]): 35% | Activity (Rattus norvegicus [13]): 10% | Activity (Rattus norvegicus [14]): Toxic | MTD at 504 h [15]: 50 mg/kg | Activity (Mus musculus [16]): 27% | Activity (Rattus norvegicus [17]): 3.4% | Activity (Canis familiaris [18]): 40% | Activity (Mus musculus [19]): Non-toxic | ED25 (Mus musculus [20]): 10 mg/kg

CC(C)NCC(O)COc1c(C(C)(C)C)cc(/C=C/c2cccs2)cc1C(C)(C)C (stereo not drawn)
Activity (Mus musculus [21]): 46% | selectivity ratio [1]: < 4.1 | Activity (Mus musculus [22]): 30% | Activity (Mus musculus [23]): inactive | MTD at 504 h [15]: < 25 mg/kg | Activity (Mus musculus [19]): Non-toxic | ED25 (Mus musculus [20]): 6 mg/kg

CC(C)NCC(O)COc1c(C(C)(C)C)cc(-c2cccs2)cc1C(C)(C)C.O=C(O)/C=C\C(=O)O (stereo not drawn)
Activity (Mus musculus [24]): Toxic | Activity (Mus musculus [25]): 33%

CCNC(C)Cc1cccc(C(F)(F)F)c1 (stereo not drawn) [FENFLURAMINE]
Activity (Canis familiaris [26]): Non-toxic | Activity (Mus musculus [27]): inactive | Activity (Mus musculus [28]): 20%

CC(C)NCC(O)COc1ccc(Oc2ccc(Cl)cc2)cc1 (stereo not drawn)
Activity (Rattus norvegicus [29]): 8% | selectivity ratio [1]: 5.5 | Activity (Mus musculus [22]): 25% | Activity (Rattus norvegicus [30]): 1% | MTD at 504 h [15]: 100 mg/kg | Activity (Rattus norvegicus [31]): 18% | Activity (Rattus norvegicus [32]): 11% | Activity (Rattus norvegicus [33]): 22% | Activity (Mus musculus [19]): Non-toxic | ED25 (Mus musculus [20]): 18 mg/kg

C[C@H](N)Cc1ccccc1 [DEXTROAMPHETAMINE]
Activity (Mus musculus [5]): 34% | Activity (Mus musculus [27]): 59% | Activity (Rattus norvegicus [14]): Toxic

CC(C)NCC(O)COc1c(C(C)(C)C)cc(/C=C/c2ccccc2)cc1C(C)(C)C (racemic) [listing 2 of 2 here]
Activity (Canis familiaris [34]): inactive | Activity (Mus musculus [35]): inactive
